Measurements published in paper PMC3226828 (Journal of medicinal chemistry, 2011).

Legend:
[1] = disclosed mGlu4 PAMs; cited from earlier work
[2] = previously reported tool compounds; cited from earlier work
[3] = previously reported tool compounds; cited from earlier work; remark: listed apart in the source
[4] = IV cassette pharmacokinetics in rhesus monkey; conditions: in vivo
[5] = rat in vivo pharmacokinetics, IV and PO; conditions: for clearance: CL; for clearance / CL: IV 1 mg/kg, hydrochloride, 10% EtOH, 80% PEG-400, 10% saline
[6] = IV cassette pharmacokinetics in beagle dog; conditions: in vivo
[7] = system: haloperidol-induced catalepsy; assay: reversal of haloperidol-induced catalepsy; type: in vivo; conditions: rat, p.o., haloperidol 0.75 mg/kg, 30 min, vs vehicle control
[8] = system: mGlu1,2,3; conditions: 10 point concentration-response prior to EC20 agonist
[9] = system: 68 GPCRs, ion channels and transporters; assay: Ricerca Lead Profiling Screen; type: binding; conditions: 10 µM; all 68 assays

In the case of `COc1cc(NC(=O)c2ccccn2)ccc1Cl` [compound 2], the “CNS penetration when dosed systemically” value [1] is given as “CNS penetrant”, the “rat CLHEP” value [2] is given as 65.5 mL/min/kg and the “rPPB (%fu)” value [3] is given as 2.4 %fu.

`O=C(Nc1ccc(N2C(=O)CC(c3ccccc3)C2=O)c(Cl)c1)c1ccccn1` (centres unmarked) [15k, N-(3-Chloro-4-(2,5-dioxo-3-phenylpyrrolidin-1-yl)phenyl)picolinamide] showed a clearance [4] of 3 mL/min/kg, an MRT ([5]; in vivo, iv, 1 mg/kg) of 1.82 h and a clearance ([5]; in vivo, iv, 1 mg/kg) of 5.4 mL/min/kg. It also gave a clearance [6] of 7 mL/min/kg.

In the case of `O=C(Nc1ccc(N2C(=O)[C@@H]3[C@H](C2=O)[C@@H]2C=C[C@H]3C2)c(Cl)c1)c1ccccn1` [15f], the “reversal of haloperidol-induced catalepsy” value [7] is reported as “produced a reversal of haloperidol-induced catalepsy”, the “reversal of haloperidol-induced catalepsy” value ([7]; listed as ML182) is reported as “orally active” and the CL ([5]; 1 mg/kg) is reported as 36.9 mL/min/kg. The MRT ([5]; in vivo, iv, 1 mg/kg) was 8.22 h, the Vd ([5]; in vivo, iv, 1 mg/kg) was 18 L/kg and the half-life ([5]; in vivo, iv, 1 mg/kg) was 0.673 h. For the same compound, the clearance ([5]; in vivo, iv, 1 mg/kg) was 37 mL/min/kg, the AUC(0-t) ([5]; in vivo, po, 10 mg/kg) was 4350 ng·h/mL and the “activity at mGlu 1, 2, 3” value [8] was “inactive”. For the same compound, the “inhibition of radioligand binding” value [9] was ≤ 50%.

Compound `O=C(Nc1ccc(N2C(=O)CC3(CCCCC3)C2=O)c(Cl)c1)c1ccccn1` [15j, N-(3-Chloro-4-(1,3-dioxo-2-azaspiro[4.5]decan-2-yl)phenyl)picolinamide] has a CL ([5]; 1 mg/kg) of 48.3 mL/min/kg, an MRT ([5]; in vivo, iv, 1 mg/kg) of 0.953 h and a clearance ([5]; in vivo, iv, 1 mg/kg) of 48 mL/min/kg.
